Results published in publication PMC10298626 (International Journal of Molecular Sciences, 2023).
Marks after values point to notes of the source that are not given here.

Assays:
acetylcholinesterase = biological target: acetylcholinesterase; parameters: method as in PMID 8823504, PMID 7649881, PMID 9535168; details: read-out: IC50 against acetylcholinesterase; cited from earlier work
[1] = system: LPS-stimulated RAW264.7 cells; experiment: NO production (Griess reagent) in LPS-stimulated RAW264.7 cells; format: cell-based, Mouse; details: then LPS (500 ng/mL) 20 h, LPS alone 25.9, control 3.1
Experimental: A high concentration of NO promotes the synthesis of inflammatory mediators, leading to an inflammatory response, and has been reported to be a cause of various immune diseases. Therefore, this study was conducted to investigate the effect of coumarin derivatives on the production of NO induced by LPS stimulation in RAW264.7 cells. The cells were treated with coumarin derivatives at concentrations of 20, 40, and 80 μM for 2 h. Then, the cells were treated with LPS. After 20 h, the culture supernatant was recovered, and the amount of NO was measured. […] The anti-inflammatory activity of these derivatives depended on the position of the substituted group rather than the electron density of the substituted group.
The Griess reagent was used to measure NO production. RAW264.7 cells were seeded into a 96-well plate and cultured for 24 h. The cells were treated with 20, 40, and 80 μM of coumarin derivatives, cultured for 2 h, and then cultured with LPS (500 ng/mL) for 20 h. The same amount of cell supernatant and Griess reagent were used for the reaction, and absorbance was measured at 540 nm.

in vitro = format: cell-based; details: mouse, RAW264.7 cells, then LPS (500 ng/mL) 20 h, read-out: Cell viability, Average (%)
Experimental: To investigate the anti-inflammatory activity of coumarin derivatives, cell viability was analyzed by treating RAW264.7 cells with 23 types of coumarin derivatives at concentrations of 20, 40, and 80 μM for 2 h and with LPS for 20 h.
Mouse macrophage RAW264.7 cells were purchased from the Korea Cell Line Bank (Seoul, Republic of Korea) and cultured in Dulbecco’s Modified Eagle Medium (Corning, NY, USA) containing 10% fetal bovine serum and 1% penicillin/streptomycin at 37 °C and 5% CO2. The medium was changed every 2 days and subcultured when the cells grew > 80%.
EZ-Cytox cell viability assay kit (Dogen, Suwon, Republic of Korea) was used to measure cell viability according to the manufacturer’s instructions. RAW264.7 cells were seeded into a 96-well plate (1 × 10^5 cells/well) and treated with coumarin derivatives at concentrations of 20, 40, and 80 μM. After 2 h, the cells were treated with LPS (500 ng/mL) and cultured for 24 h in a 37 °C, 5% CO2 incubator. The culture supernatant was treated with 10% EZ-Cytox reagent, and a microplate reader was used to measure the absorbance at 450 nm.

[2] = system: LPS-stimulated RAW264.7 cells; experiment: NO production (Griess reagent) in LPS-stimulated RAW264.7 cells; format: cell-based, Mouse; details: Dexamethasone (100 μM) treated for 2 h and LPS treated for 20 h; LPS alone 25.9, control 3.1

In the case of COc1ccc(-c2cc3c(c(=O)o2)C[C@]2(O)[C@@]4(C)C(=O)C=CC(C)(C)[C@]4(O)CC[C@@]2(C)O3)cc1 [Arisugacin B], the IC50 (acetylcholinesterase) is listed as 26 nM.

In the case of COc1ccc(-c2cc3c(c(=O)o2)C[C@]2(O)[C@@]4(C)C(=O)C=CC(C)(C)[C@]4(O)CC[C@@]2(C)O3)cc1OC [Arisugacin A], the IC50 (acetylcholinesterase) is listed as 1 nM.

In the case of COc1cccc(C2C(C#N)=C(N)Oc3c2c(=O)oc2ccccc32)c1 (stereo not drawn) [Coumarin derivative 16], the “NO production, Average” value ([1]; 20 μM for 2 h) is reported as 27.58 µM, the “NO production, Average” value ([1]; 40 μM for 2 h) is reported as 26.33 µM and the “NO production, Average (μM)” value ([1]; 80 μM for 2 h) is reported as 16.17 *** μM. It also gave a viability at 22 h, 20 μM (in vitro; 20 μM for 2 h) of 107%, a viability at 22 h, 40 μM (in vitro; 40 μM for 2 h) of 102% and a viability at 22 h, 80 μM (in vitro; 80 μM for 2 h) of 96.3%.

For C[C@@H]1C[C@H]2[C@@H]3CCC4=CC(=O)C=C[C@]4(C)[C@@]3(F)[C@@H](O)C[C@]2(C)[C@@]1(O)C(=O)CO [Dexamethasone], the “NO production, Average (μM)” value [2] was 6.5 ^# μM.
